In patent US20130011845A1, “MICRORNA REGULATING THE INSULIN SIGNALING PATHWAY, AND METHOD FOR SCREENING MATERIAL FOR CONTROLLING THE ACTION OF A TARGET THEREOF” (SNU R & DB Foundation, priority 2009, published 2013):
One block for each molecule: values may come before it. d = 2'-deoxy (DNA); r = 2'-OH (RNA)

Key:
FOXO [1] = assay: FOXO activity in Huh7 cell lines transfected with miR-200 and treated with kinase inhibitors; format: cell-based, human; conditions: Huh7 cell lines transfected with miR-141/200a or miR-200b/c/429, inhibitor at 10 μM
Hep3B cells = assay: MTT cellular viability assay; format: cell-based, human; conditions: Hep3B cells transfected with 30 nM
Method: Because stimulation of PI3K and Akt is known to facilitate cell proliferation and antagonize apoptosis (Pollak, 2008), the inventors measured cellular viability with the MTT (3-(4,5-dimethylthiazol-2-yl)-2,5-diphenyltetrazolium bromide) assay in Hep3B cells. Specifically, Hep3B cells were plated in a 96-well plate, and transfected with 30 nM of synthesized siGFP, miR-141, miR-200a, miR-200b, miR-200c, miR-429 or siFOG2. Then, to the plate, 50 μl of MTT solution (2 mg/ml) (Promega, US) was added per each well, followed by culturing at 37 °C for 1 hour. Then, each well was added with 150 μl of DMSO, and measured by a microplate reader (Bio-rad, US) at a wavelength of 590 nm. Also, Hep3B cells were transfected with 200 nM of luciferase, or 200 nM of oligonucleotides having complementary sequences to miR-141, miR-200a, miR-200b, miR-200c or miR-429, and then were subjected to MTT assay in the same manner as described above.

TCF7L1 3′UTR = assay: dual-luciferase 3′UTR reporter assay, pAC-TCF7L1; format: cell-based; conditions: luciferase reporter with TCF7L1 3′UTR, human Hela cell lines; average of at least two independent experiments
Method: (§1) In order to determine whether the target genes identified in Example 7 are in actuality targets of miR-8 and miR-200 family miRNAs, the inventors performed cloning. In other words, […] containing the miRNA target sites. Specifically, in order to obtain cDNAs of respective target genes, from drosophila S2 cell lines or human Hela cell lines, total RNA was extracted by using RNeasy mini kit (QIAGEN, US). 1 μg of total RNA and 1 μl of Oligo-dT (Invitrogen, US) were charged with up to 50 μl of distilled water, and placed into SuperScript First-Strand Synthesis System (Invitrogen, US), followed by RT-PCR reaction. Through the reaction at 65° C. for 6 min, at 4° C. for 5 min, at 42° C. for 60 min, at 95° C. for 5 min, and at 4° C. for 5 min, cDNA was synthesized. By using the cDNA (3˜5 μg) as template, and using a primer pair on respective genes noted in Table 3 and PCR Mastermix (Promega, US), PCR was performed on 3′UTR of ush, Lap1, CG8445, dbo, Lar, Ced-12, CG12333, cbt, FOG2, SEPT7, RIN2, SHC1, HOXB5, LF11, TCF7L1, ERBB21P, ELMO2, BAP1, WDR37, KLHL20, PTPRD, RASSF2 and VAC14 from among the target genes selected in Example 7. Herein, PCRP on atro as a drosophila control gene was also performed. After the reaction was completed, the PCR product on each gene's 3′UTR region was cleaved by each of the following restriction enzymes:
(§2) Then, it was cloned into pAC5.1 luciferase vector (a kind gift of Elisa Izaurralde) cleaved by the same restriction enzymes so as to produce a reporter plasmid having a miR-8 or miR-200 family target sequence in luciferase gene's 3′UTR sequence.
(§3) Reporter plasmids and renilla luciferase expression vectors (Promega, US), as noted in Table 4, and miRNAs of miR-200 family of miR-141, miR-200a (hsa-miR-200a, SEQ ID: 87: 5′-[…]-3′), miR-200b, miR-200c (has-miR-200c, SEQ ID: 88: 5′-[…]-3′) and miR-429, and miR-8 (dme-miR-8, SEQ ID: 89: 5′-[…]-3′) were bought from Samchonri and cotransfected into drosophila S2 cell lines or human Hela cell lines. Then, the activities of luciferase were measured through dual-luciferase assay (Promega, US) by a luminometer (Biorad). Then, 7 gene pairs that respond both to miR-8 and to mir-200 family miRNAs in Drosophila and human cells, respectively were identified (see FIG. 15).

WDR37 3′UTR = assay: dual-luciferase 3′UTR reporter assay, pAC-WDR37; format: cell-based; conditions: luciferase reporter with WDR37 3′UTR, human Hela cell lines; average of at least two independent experiments
Method: as §1, §2, §3

PTPRD 3′UTR = assay: dual-luciferase 3′UTR reporter assay, pAC-PTPRD; format: cell-based; conditions: luciferase reporter with PTPRD 3′UTR, human Hela cell lines; average of at least two independent experiments
Method: as §1, §2, §3

FOG2 3′UTR = assay: dual-luciferase 3′UTR reporter assay, pAC-FOG2; format: cell-based; conditions: luciferase reporter with FOG2 3′UTR, human Hela cell lines; average of at least two independent experiments
Method: as §1, §2, §3

SHC1 3′UTR = assay: dual-luciferase 3′UTR reporter assay, pAC-SHC1; format: cell-based; conditions: luciferase reporter with SHC1 3′UTR, human Hela cell lines; average of at least two independent experiments
Method: as §1, §2, §3

FOXO [2] = assay: FOXO luciferase reporter (pFK1tk-luc) assay in Hep3B cells; format: cell-based, human
Source text: The inventors analyzed the effect of miR-200 miRNAs on the downstream transducers of Akt (see FIGS. 44 to 47). Because Akt represses FOXO activity, the inventors used a luciferase reporter plasmid (pFK1tk-luc) (Biggs, W H et al., 1999, Proc Natl Acad Sci USA 96, 7421-7426) containing eight FOXO-binding sites to determine the level of FOXO activity in cultured cells. Specifically, Hep3B cells were transfected with synthesized siGFP, miR-141, miR-200a, miR-200b, miR-200c, miR-429 or siFOG2 together with pFK1tk-luc vector, and then luciferase activity was measured in the same manner as described Example 8-2. Also, Hep3B cells were transfected with luciferase, or oligonucleotides having complementary sequence to miR-141, miR-200a, miR-200b, miR-200c or miR-429 together with pFK1tk-luc vector. Then, the luciferase activity was measured in the same manner as described above. Further, Hep3B cell lines were transfected with pCK-flag (empty vector) and pCK-FOG2 produced in Example 16-1, and the luciferase activity was measured in the same manner as described above. […] Further, treating the cells with miR-200 inhibitors elevated FOXO activity (see FIG. 46).

BAP1 3′UTR = assay: dual-luciferase 3′UTR reporter assay, pAC-BAP1; format: cell-based; conditions: luciferase reporter with BAP1 3′UTR, human Hela cell lines; average of at least two independent experiments
Method: as §1, §2, §3

RIN2 3′UTR = assay: dual-luciferase 3′UTR reporter assay, pAC-RIN2; format: cell-based; conditions: luciferase reporter with RIN2 3′UTR, human Hela cell lines; average of at least two independent experiments
Method: as §1, §2, §3

ELMO2 3′UTR = assay: dual-luciferase 3′UTR reporter assay, pAC-ELMO2; format: cell-based; conditions: luciferase reporter with ELMO2 3′UTR, human Hela cell lines; average of at least two independent experiments
Method: as §1, §2, §3

HOXB5 3′UTR = assay: dual-luciferase 3′UTR reporter assay, pAC-HOXB5; format: cell-based; conditions: luciferase reporter with HOXB5 3′UTR, human Hela cell lines; average of at least two independent experiments
Method: as §1, §2, §3

SEPT7 3′UTR = assay: dual-luciferase 3′UTR reporter assay, pAC-SEPT7; format: cell-based; conditions: luciferase reporter with SEPT7 3′UTR, human Hela cell lines; average of at least two independent experiments
Method: as §1, §2, §3

KLHL20 3′UTR = assay: dual-luciferase 3′UTR reporter assay, pAC-KLHL20; format: cell-based; conditions: luciferase reporter with KLHL20 3′UTR, human Hela cell lines; average of at least two independent experiments
Method: as §1, §2, §3

RASSF2 3′UTR = assay: dual-luciferase 3′UTR reporter assay, pAC-RASSF2; format: cell-based; conditions: luciferase reporter with RASSF2 3′UTR, human Hela cell lines; average of at least two independent experiments
Method: as §1, §2, §3

VAC14 3′UTR = assay: dual-luciferase 3′UTR reporter assay, pAC-VAC14; format: cell-based; conditions: luciferase reporter with VAC14 3′UTR, human Hela cell lines; average of at least two independent experiments
Method: as §1, §2, §3

KLF11 3′UTR = assay: dual-luciferase 3′UTR reporter assay, pAC-KLF11; format: cell-based; conditions: luciferase reporter with KLF11 3′UTR, human Hela cell lines; average of at least two independent experiments
Method: as §1, §2, §3

ERBB2IP 3′UTR = assay: dual-luciferase 3′UTR reporter assay, pAC-ERBB2IP; format: cell-based; conditions: luciferase reporter with ERBB2IP 3′UTR, human Hela cell lines; average of at least two independent experiments
Method: as §1, §2, §3

Akt = assay: western blotting of p-Akt in FAO cell lines; format: cell-based; conditions: compared to siGFP
PI3K = biological target: T1, PI3K (Homo sapiens, UniProt P27986); assay: in vitro PI3K assay on immunoprecipitated PI3K complex; format: biochemical; conditions: recombinant protein added to the immunoprecipitated PI3K complex
T1 construct: endogenous in cells; host or cells: Hep3B cell lysate (method paragraph)

p85α = biological target: T2, p85α (Homo sapiens, UniProt P27986); assay: in vitro binding assay with GST-fused recombinant p85α; conditions: purified GST-fused recombinant p85α protein
T2 construct: GST (N); made in house; host or cells: E. coli BL21
Source text: In order to test whether FOG2 directly binds to p85α, the inventors cleaved PCR product on p85α gene (obtained from Example 20-1) by BamHI and EcoRI, and cloned into pGEX5X-1 vector (GE Healthcare, US) cleaved by the same restriction enzymes so as to produce GST-fused recombinant p85α expression vector. The expression vector was transfected into BL21 (Promega, US) through electroporation, and according to a known method, the […] protein was expressed and purified from bacteria (Studier, F. W. et al., 1986, J. Mol. Biol. 189, 113-130), and was used in the following in vitro binding assay, along with purified GST-fused recombinant p85α protein.

T2 sequence (P27986 whole entry, the tested form may be a part): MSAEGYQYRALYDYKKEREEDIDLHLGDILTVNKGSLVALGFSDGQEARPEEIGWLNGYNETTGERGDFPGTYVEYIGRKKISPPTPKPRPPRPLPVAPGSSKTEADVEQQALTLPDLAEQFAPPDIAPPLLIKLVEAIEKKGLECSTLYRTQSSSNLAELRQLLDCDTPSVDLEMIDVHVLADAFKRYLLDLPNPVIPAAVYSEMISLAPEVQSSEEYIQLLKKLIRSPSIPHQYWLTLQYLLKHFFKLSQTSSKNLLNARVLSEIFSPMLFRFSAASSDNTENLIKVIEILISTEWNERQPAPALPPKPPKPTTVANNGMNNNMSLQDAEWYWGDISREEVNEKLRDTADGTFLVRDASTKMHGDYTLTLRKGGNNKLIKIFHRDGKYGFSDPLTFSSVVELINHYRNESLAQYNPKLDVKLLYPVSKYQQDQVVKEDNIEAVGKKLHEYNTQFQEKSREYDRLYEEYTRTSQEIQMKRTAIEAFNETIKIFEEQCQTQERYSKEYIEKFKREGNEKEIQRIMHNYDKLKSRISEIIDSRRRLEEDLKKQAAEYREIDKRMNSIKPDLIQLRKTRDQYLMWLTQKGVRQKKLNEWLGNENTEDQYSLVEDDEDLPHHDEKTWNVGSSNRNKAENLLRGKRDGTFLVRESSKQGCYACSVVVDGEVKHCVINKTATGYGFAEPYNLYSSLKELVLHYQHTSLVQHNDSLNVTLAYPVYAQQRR
T1 sequence (P27986 whole entry): as the sequence (P27986 whole entry, the tested form may be a part) above

Molecule: N#CC(=C(/N)Sc1ccccc1N)/C(C#N)=C(\N)Sc1ccccc1N [U0126]
miR-200-mediated FOXO regulation (FOXO activity) (FOXO [1]): did not affect miR-200-mediated FOXO regulation

Represion fold, TCF7L1 (TCF7L1 3′UTR): 0.80 fold | Represion fold, WDR37 (WDR37 3′UTR): 1.21 fold | Represion fold, PTPRD (PTPRD 3′UTR): 0.97 fold | Represion fold, FOG2 (FOG2 3′UTR): 0.32 fold | Represion fold, SHC1 (SHC1 3′UTR): 1.85 fold | Represion fold, BAP1 (BAP1 3′UTR): 0.74 fold | Represion fold, RIN2 (RIN2 3′UTR): 1.30 fold | Represion fold, ELMO2 (ELMO2 3′UTR): 0.86 fold | Represion fold, HOXB5 (HOXB5 3′UTR): 0.87 fold | Represion fold, SEPT7 (SEPT7 3′UTR): 1.29 fold | Represion fold, KLHL20 (KLHL20 3′UTR): 0.69 fold | Represion fold, RASSF2 (RASSF2 3′UTR): 0.99 fold | Represion fold, VAC14 (VAC14 3′UTR): 1.20 fold | Represion fold, KLF11 (KLF11 3′UTR): 1.07 fold | Represion fold, ERBB2IP (ERBB2IP 3′UTR): 0.59 fold
Molecule: 5′-UAAUACUGCCGGGUAAUGAUGGA-3′ [miR-200c]
cell viability (MTT) (Hep3B cells): increased cell viability | FOXO activity (activity of luciferase, pFK1tk-luc) (FOXO [2]): significantly repressed

Molecule: O=C1c2ccccc2-c2n[nH]c3cccc1c23 [SB600125]
miR-200-mediated FOXO regulation (FOXO activity) (FOXO [1]): did not affect miR-200-mediated FOXO regulation

Molecule: 5′-UUAUUCAAGUCCAUCUUCCdTdT-3′ (UUAUUCAAGUCCAUCUUCCTT; siRNA; sugars from the 5' end r19 d2, backbone not given here) [siFOG2]
p-Akt levels (Akt): increased p-Akt levels | FOXO activity (activity of luciferase, pFK1tk-luc) (FOXO [2]): significantly repressed

binding to recombinant p85α (p85α): specifically bound to recombinant p85α
B1: recombinant FOG2 protein: recombinant FOG2 protein containing the middle region of FOG2 (413-789 aa), expressed and purified from bacteria (protein, UniProt Q8WW38 413-789, looked up, fragment)
chain: DLLTRSELPQSQKAMQTKDASSDTELDKCEKKTQLFLTNQRPEIQPTTNKQSFSYTKIKSEPSSPRLASSPVQPNIGPSFPVGPFLSQFSFPQDITMVPQASEILAKMSELVHRRLRHGSSSYPPVIYSPLMPKGATCFECNITFNNLDNYLVHKKHYCSSRWQQMAKSPEFPSVSEKMPEALSPNTGQTSINLLNPAAHSADPENPLLQTSCINSSTVLDLIGPNGKGHDKDFSTQTKKLSTSSNNDDKINGKPVDVKNPSVPLVDGESDPNKTTCEACNITFSRHETYMVHKQYYCATRHDPPLKRSASNKVPAMQRTMRTRKRRKMYEMCLPEQEQRPPLVQQRFLDVANLNNPCTSTQEPTEGLGECYHPRCD
PI3K activity (PI3K): significantly inhibited the PI3K activity
